Source: PMC7550323 (Clinical Pharmacokinetics, 2020)
Values joined by “and” are separate entries in the source; they are usually repeats but may differ in a detail not shown here. Equal values may be shown once. Read-outs that look alike come from different tables or passages of the source.

Tests used:
[1] = CYP3A4 drug-drug interaction study in healthy subjects; assay type: in vivo, human; settings: for AUCinf, GLSM ratio / AUClast, GLSM ratio / Cmax, GLSM ratio: 100 indicates no change
c-Kit = settings: preclinical evaluations; cited from earlier work
FLT3 = settings: doses of ≥ 80 mg/day; cited from earlier work
[2] = Hepatic impairment study, single-dose gilteritinib pharmacokinetics; assay type: in vivo, human; settings: for AUC480, GLSM, Unbound / AUCinf, GLSM, Unbound / Cmax, GLSM, Unbound: single 10 mg dose, fasted, N = 8
[3] = Effect of food study in healthy subjects; assay type: in vivo, human; settings: single 40 mg dose
Population PK analysis = assay type: in vivo, human
[4] = cited from earlier work
[5] = assay type: in vivo, human; settings: R/R AML; achievable at QD doses of 80 mg or greater
[6] = for AUC / Cmax / Tmax / half-life: human, plasma, oral; for AUC / Cmax / Tmax: single dose (Day-2); for half-life: t½, multiple dosing QD (Day 15), calculated from Rac
[7] = fluconazole + gilteritinib/gilteritinib alone
[8] = itraconazole + gilteritinib/gilteritinib alone
[9] = rifampicin + gilteritinib/gilteritinib alone

With `CCc1nc(C(N)=O)c(Nc2ccc(N3CCC(N4CCN(C)CC4)CC3)c(OC)c2)nc1NC1CCOCC1` [gilteritinib, Gilteritinib] as the molecule, how does the “increase in systemic exposure of gilteritinib” value ([1]; coadministration of itraconazole (strong CYP3A4 inhibitor)) read?
Its value is ~ 2.2 fold and 2.2 fold.

What about the “increase in gilteritinib systemic exposure” value ([1]; coadministration with fluconazole) of the same molecule?
The value was ~ 1.43 fold.

What about the “decrease in gilteritinib systemic exposure” value ([1]; concomitant administration of rifampicin) of the same molecule?
Its value is ~ 70%.

And the “AUCinf, GLSM ratio” value [1, 7]?
Its value is 143.5%.

What about the “AUClast, GLSM ratio” value [1, 7] of the same molecule?
The value was 144.0%.

What about the “Cmax, GLSM ratio” value [1, 7] of the same molecule?
Its value is 115.7%.

And the “AUCinf, GLSM ratio” value [1, 8]?
Its value is 221.4%.

And the “AUClast, GLSM ratio” value [1, 8]?
The value was 213.5%.

And the “Cmax, GLSM ratio” value [1, 8]?
The value was 119.8%.

What about the “AUCinf, GLSM ratio” value [1, 9] of the same molecule?
Its value is 28.5%.

What about the “AUClast, GLSM ratio” value [1, 9] of the same molecule?
The value was 29.2%.

And the “Cmax, GLSM ratio” value [1, 9]?
Its value is 73.4%.

What about the “activity against c-Kit” value (c-Kit) of the same molecule?
Its value is “weak activity”.

And the “maximum FLT3 inhibition” value (FLT3)?
Its value is greater than 90%.

What about the “AUC480, GMR vs normal hepatic function, Total” value ([2]; mild hepatic impairment) of the same molecule?
The value was 78.13%.

What about the “AUC480, GMR vs normal hepatic function, Unbound” value ([2]; mild hepatic impairment) of the same molecule?
The value was 87.59%.

What about the “AUCinf, GMR vs normal hepatic function, Total” value ([2]; mild hepatic impairment) of the same molecule?
The value was 78.88%.

What about the “AUCinf, GMR vs normal hepatic function, Unbound” value ([2]; mild hepatic impairment) of the same molecule?
Its value is 88.42%.

And the “Cmax, GMR vs normal hepatic function, Total” value ([2]; mild hepatic impairment)?
Its value is 106.59%.

And the “Cmax, GMR vs normal hepatic function, Unbound” value ([2]; mild hepatic impairment)?
Its value is 119.49%.

What about the “AUC480, GMR vs normal hepatic function, Total” value ([2]; moderate hepatic impairment) of the same molecule?
The value was 60.55%.

And the “AUC480, GMR vs normal hepatic function, Unbound” value ([2]; moderate hepatic impairment)?
The value was 87.21%.

What about the “AUCinf, GMR vs normal hepatic function, Total” value ([2]; moderate hepatic impairment) of the same molecule?
Its value is 61.43%.

And the “AUCinf, GMR vs normal hepatic function, Unbound” value ([2]; moderate hepatic impairment)?
Its value is 88.48%.

What about the “Cmax, GMR vs normal hepatic function, Total” value ([2]; moderate hepatic impairment) of the same molecule?
The value was 81.73%.

What about the “Cmax, GMR vs normal hepatic function, Unbound” value ([2]; moderate hepatic impairment) of the same molecule?
The value was 117.72%.

What about the “AUC480, GLSM, Unbound” value ([2]; mild hepatic impairment) of the same molecule?
The value was 25.95 ng·h/mL.

And the “AUCinf, GLSM, Unbound” value ([2]; mild hepatic impairment)?
Its value is 27.53 ng·h/mL.

And the “Cmax, GLSM, Unbound” value ([2]; mild hepatic impairment)?
Its value is 0.5171 ng/mL.

What about the “AUC480, GLSM, Unbound” value ([2]; moderate hepatic impairment) of the same molecule?
The value was 25.84 ng·h/mL.

What about the “AUCinf, GLSM, Unbound” value ([2]; moderate hepatic impairment) of the same molecule?
Its value is 27.54 ng·h/mL.

What about the “Cmax, GLSM, Unbound” value ([2]; moderate hepatic impairment) of the same molecule?
Its value is 0.5095 ng/mL.

And the “AUC480, GLSM, Unbound” value ([2]; normal hepatic function)?
The value was 29.62 ng·h/mL.

What about the “AUCinf, GLSM, Unbound” value ([2]; normal hepatic function) of the same molecule?
Its value is 31.13 ng·h/mL.

What about the “Cmax, GLSM, Unbound” value ([2]; normal hepatic function) of the same molecule?
The value was 0.4328 ng/mL.

What about the “AUC72, GMR (fed/fasted)” value [3] of the same molecule?
Its value is 91.0%.

What about the “AUCinf, GMR (fed/fasted)” value [3] of the same molecule?
The value was 93.8%.

What about the “AUClast, GMR (fed/fasted)” value [3] of the same molecule?
Its value is 94.6%.

What about the “Cmax, GMR (fed/fasted)” value [3] of the same molecule?
Its value is 74.0%.

And the half-life (Population PK analysis; human, plasma, oral)?
The half-life was 113 h.

And the volume of distribution (Population PK analysis; in vivo)?
Its volume of distribution is “large volume of distribution”.

And the maximum tolerated dose ([4]; R/R AML, QD single agent)?
Its maximum tolerated dose is 300 mg/day.

And the “median overall survival duration” value ([4]; doses of ≥ 80 mg/day)?
The value was 31 weeks.

And the overall response rate ([4]; doses of ≥ 80 mg/day)?
Its overall response rate is 52%.

And the “steady-state Ctrough at which composite complete response occurred more commonly” value [5]?
Its value is no less than 100 ng/mL.

What about the “dose proportionality of pharmacokinetics” value ([6]; 20 to 450 mg QD, R/R AML) of the same molecule?
Its value is “dose-proportional pharmacokinetics”.

What about the “time at which steady state is achieved, based on Ctrough” value ([6]; QD dosing, visual inspection of median Ctrough) of the same molecule?
Its value is no more than 15 days.

And the AUC ([6]; 20 mg, AUC24, Mean (SD), n = 5)?
Its AUC is 302 ng·h/mL.

And the AUC ([6]; 20 mg, AUC24, Median (range), n = 5)?
The AUC was 262 ng·h/mL.

And the Cmax ([6]; 20 mg, Mean (SD), n = 5)?
Its Cmax is 28.1 ng/mL.

And the Cmax ([6]; 20 mg, Median (range), n = 5)?
The Cmax was 23.7 ng/mL.

What about the Tmax ([6]; 20 mg, Median (range), n = 5) of the same molecule?
The Tmax was 2 h.

And the half-life ([6]; 20 mg, Mean (SD), 20 mg, n = 3)?
Its half-life is 62.1 h.

What about the half-life ([6]; 20 mg, Median (range), 20 mg, n = 3) of the same molecule?
Its half-life is 54.5 h.

What about the AUC ([6]; 40 mg, AUC24, Mean (SD), n = 3) of the same molecule?
Its AUC is 360 ng·h/mL.

And the AUC ([6]; 40 mg, AUC24, Median (range), n = 3)?
The AUC was 315 ng·h/mL.

What about the Cmax ([6]; 40 mg, Mean (SD), n = 3) of the same molecule?
Its Cmax is 25 ng/mL.

What about the Cmax ([6]; 40 mg, Median (range), n = 3) of the same molecule?
The Cmax was 17 ng/mL.

What about the Tmax ([6]; 40 mg, Median (range), n = 3) of the same molecule?
The Tmax was 5.98 h.

What about the half-life ([6]; 40 mg, Mean (SD), 40 mg, n = 2) of the same molecule?
The half-life was 152 h.

What about the half-life ([6]; 40 mg, Median (range), 40 mg, n = 2) of the same molecule?
The half-life was 152 h.

What about the AUC ([6]; 80 mg, AUC24, Mean (SD), n = 3) of the same molecule?
Its AUC is 1220 ng·h/mL.

What about the AUC ([6]; 80 mg, AUC24, Median (range), n = 3) of the same molecule?
Its AUC is 995 ng·h/mL.

And the Cmax ([6]; 80 mg, Mean (SD), n = 3)?
The Cmax was 75.3 ng/mL.

What about the Cmax ([6]; 80 mg, Median (range), n = 3) of the same molecule?
The Cmax was 71.5 ng/mL.
